# From ChEMBL document CHEMBL1240358, “Activity of a new antipseudomonal cephalosporin, CXA-101 (FR264205), against carbapenem-resistant and multidrug-resistant Pseudomonas aeruginosa clinical strains” (2010)
# Columns and labels:
# Assay type in all cases: functional
# Pseudomonas aeruginosa [1] = test: Antibacterial activity against carbapenem-resistant Pseudomonas aeruginosa isolate 1E3 PpA2 harboring acquired beta-lactamase OXA-101 by broth microdilution method
# Pseudomonas aeruginosa [2] = test: Antibacterial activity against carbapenem-resistant Pseudomonas aeruginosa isolate 1E2 PpA1 harboring acquired beta-lactamase OXA-144 by broth microdilution method
# Pseudomonas aeruginosa [3] = test: Antibacterial activity against carbapenem-resistant Pseudomonas aeruginosa isolate 1C2 PTOL1 harboring beta-lactamase OXA-17 by broth microdilution method
# Pseudomonas aeruginosa [4] = test: Antibacterial activity against carbapenem-resistant Pseudomonas aeruginosa isolate 1C3 PTOL1 harboring acquired beta-lactamase OXA-17 by broth microdilution method
# Pseudomonas aeruginosa [5] = test: Antibacterial activity against carbapenem-resistant Pseudomonas aeruginosa isolate 3C1 VAL6 by broth microdilution method
# Pseudomonas aeruginosa [6] = test: Antibacterial activity against ceftazidime-resistant Pseudomonas aeruginosa by broth microdilution method
# Pseudomonas aeruginosa [7] = test: Antibacterial activity against Pseudomonas aeruginosa PAO1 harboring acquired beta-lactamase OXA-144 by broth microdilution method
# Pseudomonas aeruginosa [8] = test: Antibacterial activity against carbapenem-resistant Pseudomonas aeruginosa isolate 3D2 GM2 harboring acquired beta-lactamase BEL-3 by broth microdilution method
# Pseudomonas aeruginosa [9] = test: Antibacterial activity against meropenem-susceptible Pseudomonas aeruginosa by broth microdilution method
# Pseudomonas aeruginosa [10] = test: Antibacterial activity against Pseudomonas aeruginosa PAO1 by broth microdilution method
# Pseudomonas aeruginosa [11] = test: Antibacterial activity against imipenem-susceptible Pseudomonas aeruginosa by broth microdilution method
# Pseudomonas aeruginosa [12] = test: Antibacterial activity against multidrug-resistant Pseudomonas aeruginosa by broth microdilution method
# Pseudomonas aeruginosa [13] = test: Antibacterial activity against Pseudomonas aeruginosa by broth microdilution method
# Pseudomonas aeruginosa [14] = test: Antibacterial activity against tobramycin-resistant Pseudomonas aeruginosa by broth microdilution method
# Pseudomonas aeruginosa [15] = test: Antibacterial activity against Pseudomonas aeruginosa harboring high level of beta lactamase AmpC by broth microdilution method
# Pseudomonas aeruginosa [16] = test: Antibacterial activity against piperacillin-susceptible Pseudomonas aeruginosa by broth microdilution method
# Pseudomonas aeruginosa [17] = test: Antibacterial activity against Pseudomonas aeruginosa harboring low level of beta lactamase AmpC by broth microdilution method
# Pseudomonas aeruginosa [18] = test: Antibacterial activity against gentamicin-resistant Pseudomonas aeruginosa by broth microdilution method
# Pseudomonas aeruginosa [19] = test: Antibacterial activity against ciprofloxacin -susceptible Pseudomonas aeruginosa by broth microdilution method
# Pseudomonas aeruginosa [20] = test: Antibacterial activity against ticarcillin-susceptible Pseudomonas aeruginosa by broth microdilution method
# Pseudomonas aeruginosa [21] = test: Antibacterial activity against multidrug-resistant Pseudomonas aeruginosa isolated from patient with cystic fibrosis
# Pseudomonas aeruginosa [22] = test: Antibacterial activity against carbapenem-resistant Pseudomonas aeruginosa isolate 1B2 RCA2 harboring acquired beta-lactamase PER-1 by broth microdilution method
# Pseudomonas aeruginosa [23] = test: Antibacterial activity against imipenem-resistant Pseudomonas aeruginosa by broth microdilution method
# Pseudomonas aeruginosa [24] = test: Antibacterial activity against piperacillin- and tazobactam-resistant Pseudomonas aeruginosa by broth microdilution method
# Pseudomonas aeruginosa [25] = test: Antibacterial activity against tobramycin-susceptible Pseudomonas aeruginosa by broth microdilution method
# Pseudomonas aeruginosa [26] = test: Antibacterial activity against gentamicin-susceptible Pseudomonas aeruginosa by broth microdilution method
# Pseudomonas aeruginosa [27] = test: Antibacterial activity against carbapenem-resistant Pseudomonas aeruginosa isolate 3C8 GM1 harboring acquired beta-lactamase OXA-144 by broth microdilution method
# Pseudomonas aeruginosa [28] = test: Antibacterial activity against Pseudomonas aeruginosa isolated from intensive care unit patient by broth microdilution method
# Pseudomonas aeruginosa [29] = test: Antibacterial activity against aztreonam-resistant Pseudomonas aeruginosa by broth microdilution method
# Pseudomonas aeruginosa [30] = test: Antibacterial activity against aztreonam-susceptible Pseudomonas aeruginosa by broth microdilution method
# Pseudomonas aeruginosa [31] = test: Antibacterial activity against carbapenem-resistant Pseudomonas aeruginosa isolate 3C9 GM1 harboring acquired beta-lactamase OXA-144 by broth microdilution method
# Pseudomonas aeruginosa [32] = test: Antibacterial activity against piperacillin-resistant Pseudomonas aeruginosa by broth microdilution method
# Pseudomonas aeruginosa [33] = test: Antibacterial activity against cefepime-resistant Pseudomonas aeruginosa by broth microdilution method
# Pseudomonas aeruginosa [34] = test: Antibacterial activity against cephalosporin-resistant Pseudomonas aeruginosa clinical isolates
# Pseudomonas aeruginosa [35] = test: Antibacterial activity against piperacillin- and tazobactam-susceptible Pseudomonas aeruginosa by broth microdilution method
# Pseudomonas aeruginosa [36] = test: Antibacterial activity against cefepime-susceptible Pseudomonas aeruginosa by broth microdilution method
# Pseudomonas aeruginosa [37] = test: Antibacterial activity against Pseudomonas aeruginosa isolated from non-intensive care unit patient by broth microdilution method
# Pseudomonas aeruginosa [38] = test: Antibacterial activity against ticarcillin-resistant Pseudomonas aeruginosa by broth microdilution method
# Pseudomonas aeruginosa [39] = test: Antibacterial activity against carbapenem-resistant Pseudomonas aeruginosa isolate 1D5 SA1 harboring acquired beta-lactamase VIM-2 by broth microdilution method
# Pseudomonas aeruginosa [40] = test: Antibacterial activity against non-multidrug-resistant Pseudomonas aeruginosa by broth microdilution method
# Pseudomonas aeruginosa [41] = test: Antibacterial activity against meropenem-resistant Pseudomonas aeruginosa by broth microdilution method
# Pseudomonas aeruginosa [42] = test: Antibacterial activity against ceftazidime-susceptible Pseudomonas aeruginosa by broth microdilution method
# Pseudomonas aeruginosa [43] = test: Antibacterial activity against ciprofloxacin-resistant Pseudomonas aeruginosa by broth microdilution method
# Pseudomonas aeruginosa [44] = test: Antibacterial activity against carbapenem-resistant Pseudomonas aeruginosa isolate 1E1 PpA1 harboring acquired beta-lactamase OXA-144 by broth microdilution method
# Pseudomonas aeruginosa [45] = test: Antibacterial activity against Pseudomonas aeruginosa PAO1 harboring acquired beta-lactamase OXA-2 by broth microdilution method
# Pseudomonas aeruginosa [46] = test: Antibacterial activity against amikacin-susceptible Pseudomonas aeruginosa by broth microdilution method
# Pseudomonas aeruginosa [47] = test: Antibacterial activity against amikacin-resistant Pseudomonas aeruginosa by broth microdilution method
# Pseudomonas aeruginosa [48] = test: Antibacterial activity against Pseudomonas aeruginosa assessed as percent nonsusceptible isolates by broth microdilution assay
compound,measurement,setting,value
O=C(O)c1cn(C2CC2)c2cc(N3CCNCC3)c(F)cc2c1=O [CIPROFLOXACIN],MIC,Pseudomonas aeruginosa [1],1 µg/mL
same,MIC,Pseudomonas aeruginosa [2],16 µg/mL
same,MIC,Pseudomonas aeruginosa [3],4 µg/mL
same,MIC,Pseudomonas aeruginosa [4],4 µg/mL
Cn1c(N)c(NC(=O)NCCN)c[n+]1CC1=C(C(=O)O)N2C(=O)[C@@H](NC(=O)/C(=N\OC(C)(C)C(=O)[O-])c3nsc(N)n3)[C@H]2SC1 [CEFTOLOZANE],MIC,Pseudomonas aeruginosa [5],64 µg/mL
same,MIC,Pseudomonas aeruginosa [1],32 µg/mL
same,MIC50,Pseudomonas aeruginosa [6],1 µg/mL
same,MIC90,Pseudomonas aeruginosa [6],4 µg/mL
same,MIC,Pseudomonas aeruginosa [7],32 µg/mL
same,MIC,Pseudomonas aeruginosa [8],32 µg/mL
same,MIC50,Pseudomonas aeruginosa [9],1 µg/mL
same,MIC90,Pseudomonas aeruginosa [9],2 µg/mL
same,MIC,Pseudomonas aeruginosa [10],0.25 µg/mL
same,MIC50,Pseudomonas aeruginosa [11],1 µg/mL
same,MIC90,Pseudomonas aeruginosa [11],4 µg/mL
same,MIC50,Pseudomonas aeruginosa [12],1 µg/mL
same,MIC90,Pseudomonas aeruginosa [12],4 µg/mL
same,MIC50,Pseudomonas aeruginosa [13],1 µg/mL
same,MIC90,Pseudomonas aeruginosa [13],4 µg/mL
same,MIC50,Pseudomonas aeruginosa [14],1 µg/mL
same,MIC90,Pseudomonas aeruginosa [14],4 µg/mL
same,MIC50,Pseudomonas aeruginosa [15],1 µg/mL
same,MIC90,Pseudomonas aeruginosa [15],4 µg/mL
same,MIC,Pseudomonas aeruginosa [2],64 µg/mL
same,MIC50,Pseudomonas aeruginosa [16],1 µg/mL
same,MIC90,Pseudomonas aeruginosa [16],2 µg/mL
same,MIC50,Pseudomonas aeruginosa [17],1 µg/mL
same,MIC90,Pseudomonas aeruginosa [17],2 µg/mL
same,MIC50,Pseudomonas aeruginosa [18],1 µg/mL
same,MIC90,Pseudomonas aeruginosa [18],4 µg/mL
same,MIC50,Pseudomonas aeruginosa [19],1 µg/mL
same,MIC90,Pseudomonas aeruginosa [19],2 µg/mL
same,MIC50,Pseudomonas aeruginosa [20],1 µg/mL
same,MIC90,Pseudomonas aeruginosa [20],2 µg/mL
same,MIC,Pseudomonas aeruginosa [21],> 8 µg/mL
same,MIC,Pseudomonas aeruginosa [22],64 µg/mL
same,MIC50,Pseudomonas aeruginosa [23],1 µg/mL
same,MIC90,Pseudomonas aeruginosa [23],4 µg/mL
same,MIC50,Pseudomonas aeruginosa [24],1 µg/mL
same,MIC90,Pseudomonas aeruginosa [24],4 µg/mL
same,MIC50,Pseudomonas aeruginosa [25],1 µg/mL
same,MIC90,Pseudomonas aeruginosa [25],2 µg/mL
same,MIC50,Pseudomonas aeruginosa [26],1 µg/mL
same,MIC90,Pseudomonas aeruginosa [26],2 µg/mL
same,MIC,Pseudomonas aeruginosa [27],32 µg/mL
same,MIC50,Pseudomonas aeruginosa [28],1 µg/mL
same,MIC90,Pseudomonas aeruginosa [28],4 µg/mL
same,MIC50,Pseudomonas aeruginosa [29],1 µg/mL
same,MIC90,Pseudomonas aeruginosa [29],4 µg/mL
same,MIC50,Pseudomonas aeruginosa [30],1 µg/mL
same,MIC90,Pseudomonas aeruginosa [30],2 µg/mL
same,MIC,Pseudomonas aeruginosa [3],64 µg/mL
same,MIC,Pseudomonas aeruginosa [31],32 µg/mL
same,MIC50,Pseudomonas aeruginosa [32],1 µg/mL
same,MIC90,Pseudomonas aeruginosa [32],8 µg/mL
same,MIC50,Pseudomonas aeruginosa [33],1 µg/mL
same,MIC90,Pseudomonas aeruginosa [33],4 µg/mL
same,MIC50,Pseudomonas aeruginosa [34],0.51 µg/mL
same,MIC90,Pseudomonas aeruginosa [34],1 µg/mL
same,MIC50,Pseudomonas aeruginosa [35],1 µg/mL
same,MIC90,Pseudomonas aeruginosa [35],2 µg/mL
same,MIC50,Pseudomonas aeruginosa [36],0.5 µg/mL
same,MIC90,Pseudomonas aeruginosa [36],2 µg/mL
same,MIC50,Pseudomonas aeruginosa [37],1 µg/mL
same,MIC90,Pseudomonas aeruginosa [37],2 µg/mL
same,MIC50,Pseudomonas aeruginosa [38],1 µg/mL
same,MIC90,Pseudomonas aeruginosa [38],8 µg/mL
same,MIC,Pseudomonas aeruginosa [39],64 µg/mL
same,MIC50,Pseudomonas aeruginosa [40],1 µg/mL
same,MIC90,Pseudomonas aeruginosa [40],2 µg/mL
same,MIC50,Pseudomonas aeruginosa [41],1 µg/mL
same,MIC90,Pseudomonas aeruginosa [41],4 µg/mL
same,MIC50,Pseudomonas aeruginosa [42],1 µg/mL
same,MIC90,Pseudomonas aeruginosa [42],2 µg/mL
same,MIC,Pseudomonas aeruginosa [4],64 µg/mL
same,MIC50,Pseudomonas aeruginosa [43],1 µg/mL
same,MIC90,Pseudomonas aeruginosa [43],4 µg/mL
same,MIC,Pseudomonas aeruginosa [44],32 µg/mL
same,MIC,Pseudomonas aeruginosa [45],0.5 µg/mL
same,MIC50,Pseudomonas aeruginosa [46],1 µg/mL
same,MIC90,Pseudomonas aeruginosa [46],2 µg/mL
same,MIC50,Pseudomonas aeruginosa [47],1 µg/mL
same,MIC90,Pseudomonas aeruginosa [47],64 µg/mL
GENTAMICIN,Activity,Pseudomonas aeruginosa [48],58.9%
CC(C)(O/N=C(\C(=O)N[C@@H]1C(=O)N2C(C(=O)[O-])=C(C[n+]3ccccc3)CS[C@H]12)c1csc(N)n1)C(=O)O [CEFTAZIDIME],MIC,Pseudomonas aeruginosa [5],> 64 µg/mL
same,MIC,Pseudomonas aeruginosa [1],64 µg/mL
same,MIC,Pseudomonas aeruginosa [7],> 64 µg/mL
same,MIC,Pseudomonas aeruginosa [8],> 64 µg/mL
same,MIC,Pseudomonas aeruginosa [10],1 µg/mL
same,MIC,Pseudomonas aeruginosa [2],> 64 µg/mL
same,MIC,Pseudomonas aeruginosa [22],> 64 µg/mL
same,Activity,Pseudomonas aeruginosa [48],46.2%
same,MIC,Pseudomonas aeruginosa [27],32 µg/mL
same,MIC,Pseudomonas aeruginosa [3],> 64 µg/mL
same,MIC,Pseudomonas aeruginosa [31],32 µg/mL
same,MIC,Pseudomonas aeruginosa [39],16 µg/mL
same,MIC,Pseudomonas aeruginosa [4],> 64 µg/mL
same,MIC,Pseudomonas aeruginosa [44],> 64 µg/mL
same,MIC,Pseudomonas aeruginosa [45],4 µg/mL
C[C@@H](O)[C@H]1C(=O)N2C(C(=O)O)=C(SCCNC=N)C[C@H]12 [IMIPENEM ANHYDROUS],MIC,Pseudomonas aeruginosa [5],> 64 µg/mL
same,MIC,Pseudomonas aeruginosa [1],16 µg/mL
same,MIC,Pseudomonas aeruginosa [7],1 µg/mL
same,MIC,Pseudomonas aeruginosa [8],64 µg/mL
same,MIC,Pseudomonas aeruginosa [10],1 µg/mL
same,MIC,Pseudomonas aeruginosa [2],> 64 µg/mL
same,MIC,Pseudomonas aeruginosa [22],64 µg/mL
same,Activity,Pseudomonas aeruginosa [48],33.9%
same,MIC,Pseudomonas aeruginosa [27],> 64 µg/mL
same,MIC,Pseudomonas aeruginosa [3],> 64 µg/mL
same,MIC,Pseudomonas aeruginosa [31],> 64 µg/mL
same,MIC,Pseudomonas aeruginosa [39],> 64 µg/mL
same,MIC,Pseudomonas aeruginosa [4],> 64 µg/mL
same,MIC,Pseudomonas aeruginosa [44],> 64 µg/mL
same,MIC,Pseudomonas aeruginosa [45],1 µg/mL
